#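 Five compound concentrations were applied to cells in 96-well plates for 48 hours; endpoints were derived by simple linear interpolation of the resulting dose-response curve. GI50 is the concentration that inhibits growth by half. At the TGI there is no net growth.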
# Legend:
# Assay in all cases: NCI tumour cell line growth inhibition, 48 h
# SK-MEL-5 melanoma = test system: SK-MEL-5 melanoma
# DU-145 prostate = test system: DU-145 prostate
# NCI-H226 lung = test system: NCI-H226 lung
# UO-31 renal = test system: UO-31 renal
# T-47D breast = test system: T-47D breast
# COLO 205 colon = test system: COLO 205 colon
# HOP-62 NSCLC = test system: HOP-62 NSCLC
# OVCAR-8 ovarian = test system: OVCAR-8 ovarian
# IGROV1 ovarian = test system: IGROV1 ovarian
# SF-268 CNS = test system: SF-268 CNS
# SW-620 colon = test system: SW-620 colon
# SF-539 CNS = test system: SF-539 CNS
# HCC-2998 colon = test system: HCC-2998 colon
# NCI-H23 lung = test system: NCI-H23 lung
# RXF 393 renal = test system: RXF 393 renal
# HCT-15 colon = test system: HCT-15 colon
# OVCAR-4 ovarian = test system: OVCAR-4 ovarian
# SK-MEL-28 melanoma = test system: SK-MEL-28 melanoma
# RPMI-8226 leukemia = test system: RPMI-8226 leukemia
# NCI/ADR-RES ovarian = test system: NCI/ADR-RES ovarian
# CAKI-1 renal = test system: CAKI-1 renal
# 786-0 renal = test system: 786-0 renal
# SNB-75 CNS = test system: SNB-75 CNS
# HCT-116 colon = test system: HCT-116 colon
# K-562 leukemia = test system: K-562 leukemia
# BT-549 breast = test system: BT-549 breast
# EKVX NSCLC = test system: EKVX NSCLC
# NCI-H460 lung = test system: NCI-H460 lung
# UACC-257 melanoma = test system: UACC-257 melanoma
# OVCAR-5 ovarian = test system: OVCAR-5 ovarian
# OVCAR-3 ovarian = test system: OVCAR-3 ovarian
# HL-60(TB) leukemia = test system: HL-60(TB) leukemia
# TK-10 renal = test system: TK-10 renal
# SNB-19 CNS = test system: SNB-19 CNS
# KM12 colon = test system: KM12 colon
# M14 melanoma = test system: M14 melanoma
# A549 NSCLC = test system: A549 NSCLC
# ACHN renal = test system: ACHN renal
# MCF7 breast = test system: MCF7 breast
# SN12C renal = test system: SN12C renal
# HT29 colon = test system: HT29 colon
# U251 CNS = test system: U251 CNS
# SF-295 CNS = test system: SF-295 CNS
# CCRF-CEM leukemia = test system: CCRF-CEM leukemia
# LOX IMVI melanoma = test system: LOX IMVI melanoma
# SR leukemia = test system: SR leukemia
# HS 578T breast = test system: HS 578T breast
# MALME-3M melanoma = test system: MALME-3M melanoma
# MDA-MB-231 breast = test system: MDA-MB-231 breast
# UACC-62 melanoma = test system: UACC-62 melanoma
# NCI-H522 lung = test system: NCI-H522 lung
# HOP-92 NSCLC = test system: HOP-92 NSCLC
# MDA-MB-435 = test system: MDA-MB-435
# SK-OV-3 ovarian = test system: SK-OV-3 ovarian
# PC-3 prostate = test system: PC-3 prostate
# MOLT-4 leukemia = test system: MOLT-4 leukemia
# SK-MEL-2 melanoma = test system: SK-MEL-2 melanoma
structure (smiles),measurement,setting,value
O=C(NCCCNc1cc(-c2cn(-c3ccccc3)nc2-c2cccc(O)c2)ccn1)c1ccc(F)cc1,GI50,SK-MEL-5 melanoma,1.61 µM
same,TGI,SK-MEL-5 melanoma,3.55 µM
same,GI50,DU-145 prostate,4.63 µM
same,TGI,DU-145 prostate,53.4 µM
same,GI50,NCI-H226 lung,3.7 µM
same,TGI,NCI-H226 lung,12.4 µM
same,GI50,UO-31 renal,1.78 µM
same,TGI,UO-31 renal,10.2 µM
same,GI50,T-47D breast,1.14 µM
same,TGI,T-47D breast,5.11 µM
same,GI50,COLO 205 colon,1.6 µM
same,TGI,COLO 205 colon,3.34 µM
same,GI50,HOP-62 NSCLC,2.64 µM
same,TGI,HOP-62 NSCLC,10.8 µM
same,GI50,OVCAR-8 ovarian,4.01 µM
same,TGI,OVCAR-8 ovarian,21.2 µM
same,GI50,IGROV1 ovarian,4.22 µM
same,TGI,IGROV1 ovarian,24.9 µM
same,GI50,SF-268 CNS,2.99 µM
same,TGI,SF-268 CNS,26.9 µM
same,GI50,SW-620 colon,2.95 µM
same,TGI,SW-620 colon,9.55 µM
same,GI50,SF-539 CNS,2.15 µM
same,TGI,SF-539 CNS,5.41 µM
same,GI50,HCC-2998 colon,1.83 µM
same,TGI,HCC-2998 colon,3.4 µM
same,GI50,NCI-H23 lung,2.81 µM
same,TGI,NCI-H23 lung,14.8 µM
same,GI50,RXF 393 renal,1.63 µM
same,TGI,RXF 393 renal,4.63 µM
same,GI50,HCT-15 colon,1.77 µM
same,TGI,HCT-15 colon,4.7 µM
same,GI50,OVCAR-4 ovarian,3.79 µM
same,TGI,OVCAR-4 ovarian,> 100 µM
same,GI50,SK-MEL-28 melanoma,1.74 µM
same,TGI,SK-MEL-28 melanoma,4.12 µM
same,GI50,RPMI-8226 leukemia,1.94 µM
same,TGI,RPMI-8226 leukemia,5.55 µM
same,GI50,NCI/ADR-RES ovarian,2.2 µM
same,TGI,NCI/ADR-RES ovarian,5.75 µM
same,GI50,CAKI-1 renal,2.84 µM
same,TGI,CAKI-1 renal,21.2 µM
same,GI50,786-0 renal,1.49 µM
same,TGI,786-0 renal,3.62 µM
same,GI50,SNB-75 CNS,5.19 µM
same,TGI,SNB-75 CNS,> 100 µM
same,GI50,HCT-116 colon,2.14 µM
same,TGI,HCT-116 colon,7.38 µM
same,GI50,K-562 leukemia,1.93 µM
same,TGI,K-562 leukemia,> 100 µM
same,GI50,BT-549 breast,1.59 µM
same,TGI,BT-549 breast,6.31 µM
same,GI50,EKVX NSCLC,3.7 µM
same,TGI,EKVX NSCLC,69.1 µM
same,GI50,NCI-H460 lung,3.14 µM
same,TGI,NCI-H460 lung,11.5 µM
same,GI50,UACC-257 melanoma,1.8 µM
same,TGI,UACC-257 melanoma,3.87 µM
same,GI50,OVCAR-5 ovarian,2.62 µM
same,TGI,OVCAR-5 ovarian,28.6 µM
same,GI50,OVCAR-3 ovarian,4.03 µM
same,TGI,OVCAR-3 ovarian,40.7 µM
same,GI50,HL-60(TB) leukemia,2.46 µM
same,TGI,HL-60(TB) leukemia,6.49 µM
same,GI50,TK-10 renal,4.47 µM
same,TGI,TK-10 renal,26.3 µM
same,GI50,SNB-19 CNS,4.63 µM
same,TGI,SNB-19 CNS,29.5 µM
same,GI50,KM12 colon,3.18 µM
same,TGI,KM12 colon,12.3 µM
same,GI50,M14 melanoma,1.85 µM
same,TGI,M14 melanoma,4.28 µM
same,GI50,A549 NSCLC,3.65 µM
same,TGI,A549 NSCLC,20.8 µM
same,GI50,ACHN renal,3.36 µM
same,TGI,ACHN renal,73.6 µM
same,GI50,MCF7 breast,2.32 µM
same,TGI,MCF7 breast,9.92 µM
same,GI50,SN12C renal,4.29 µM
same,TGI,SN12C renal,30.8 µM
same,GI50,HT29 colon,1.7 µM
same,TGI,HT29 colon,5.43 µM
same,GI50,U251 CNS,2.96 µM
same,TGI,U251 CNS,10.9 µM
same,GI50,SF-295 CNS,1.86 µM
same,TGI,SF-295 CNS,4.58 µM
same,GI50,CCRF-CEM leukemia,1.54 µM
same,TGI,CCRF-CEM leukemia,> 100 µM
same,GI50,LOX IMVI melanoma,2.27 µM
same,TGI,LOX IMVI melanoma,5.88 µM
same,GI50,SR leukemia,1.65 µM
same,TGI,SR leukemia,6.53 µM
same,GI50,HS 578T breast,2.58 µM
same,TGI,HS 578T breast,10.8 µM
same,GI50,MALME-3M melanoma,1.95 µM
same,TGI,MALME-3M melanoma,4.49 µM
same,GI50,MDA-MB-231 breast,2.09 µM
same,TGI,MDA-MB-231 breast,4.98 µM
same,GI50,UACC-62 melanoma,2.05 µM
same,TGI,UACC-62 melanoma,5.08 µM
same,GI50,NCI-H522 lung,3.09 µM
same,TGI,NCI-H522 lung,11.4 µM
same,GI50,HOP-92 NSCLC,2.13 µM
same,TGI,HOP-92 NSCLC,7.65 µM
same,GI50,MDA-MB-435,1.74 µM
same,TGI,MDA-MB-435,4.44 µM
same,GI50,SK-OV-3 ovarian,3.39 µM
same,TGI,SK-OV-3 ovarian,24.2 µM
same,GI50,PC-3 prostate,2.81 µM
same,TGI,PC-3 prostate,15.7 µM
same,GI50,MOLT-4 leukemia,2.36 µM
same,TGI,MOLT-4 leukemia,14 µM
same,GI50,SK-MEL-2 melanoma,2.18 µM
same,TGI,SK-MEL-2 melanoma,5.06 µM

# Source: PubChem BioAssay (NCI)
